Measured values as given in patent publication US11691898B2, “Water treatment” (ITALMATCH CHEMICALS GB LIMITED, priority 2016, dated 2023).

Tests used:
[1] = tested on: Enterobacter aerogenes; assay: Log10 reduction in viable count of facultative anaerobic bacteria in a high-TDS aqueous suspension; type: cell-based; settings: pH 8.0, TDS 30,000 mg l^-1, versus control, 6 = complete kill, ppm active as per example
Protocol: (§1) Aqueous systems inoculated with anaerobe and facultative anaerobe culture and having a total dissolved solids (TDS) concentration of 30,000 mg l^−1 were prepared and treated with treatment agents comprising: (a) tri n-butyl n-tetradecyl phosphonium chloride (TTPC) and (b) NaClO2.
(§2) A suspension of Desulfovibrio vulgaris plus Enterobacter aerogenes bacteria containing from 1×10^5 to 1×10^6 cells/mL was prepared in sterile pH 8 phosphate buffer containing sodium chloride to give the desired total dissolved solids (TDS) concentration. Aliquots of this suspension were dosed with the indicated concentrations of the compounds (a) and (b) with the concentrations being measured as ppm active. The mixtures were allowed to stand at room temperature. At the designated contact times, each mixture was sampled to determine the total number of viable cells of both Desulfovibrio vulgaris and Enterobacter aerogenes by serial 10-fold dilution into API RP 38 media vials and anaerobic acid producing media vials, respectively. The vials were incubated at 37° C. for 72 hours. Results were recorded as log10 reduction in the viable count versus the control.
(§3) The efficacy of the treatment agents was evaluated by measuring the Log10 Reduction of the anaerobic bacterium Desulfovibrio vulgaris and the facultative anaerobic bacterium Enterobacter aerogenes after contact times of 1 hour, 4 hours and 24 hours as detailed in Table 1. For TTPC the stated ppm value relates to the amount of TTPC added (active). For NaClO2 the stated ppm relates to the amount of NaClO2 added (active).

[2] = tested on: Desulfovibrio vulgaris; assay: Log10 reduction in viable count of anaerobic bacteria in a high-TDS aqueous suspension; type: cell-based; settings: for Log10 Reduction Anaerobes*: pH 8.0, TDS 30,000 mg l^-1, versus control, 5 = complete kill, ppm active as per example; for effectiveness against anaerobes (in words): alone
Protocol: as §1, §2, §3

CCCCCCCCCCCCCC[P+](CCCC)(CCCC)CCCC.[Cl-] [1(comparative), tri n-butyl n-tetradecyl phosphonium chloride]
Log10 Reduction Facultative Anaerobes** ([1]; contact time 1 hour): 0
Log10 Reduction Anaerobes* ([2]; contact time 1 hour): 2

CCCCCCCCCCCCCC[P+](CCCC)(CCCC)CCCC.[Cl-] [2(comparative), tri n-butyl n-tetradecyl phosphonium chloride]
Log10 Reduction Facultative Anaerobes** ([1]; contact time 1 hour): 3
Log10 Reduction Anaerobes* ([2]; contact time 1 hour): 5

[Na+].[O-][Cl+][O-] [4(comparative), NaClO2]
Log10 Reduction Facultative Anaerobes** ([1]; contact time 1 hour): 0
Log10 Reduction Anaerobes* ([2]; contact time 1 hour): 0

CCCCCCCCCCCCCC[P+](CCCC)(CCCC)CCCC.[Cl-] [9(comparative), tri n-butyl n-tetradecyl phosphonium chloride]
Log10 Reduction Facultative Anaerobes** ([1]; contact time 4 hours): 3
Log10 Reduction Anaerobes* ([2]; contact time 4 hours): 5

CCCCCCCCCCCCCC[P+](CCCC)(CCCC)CCCC.[Cl-] [10(comparative), tri n-butyl n-tetradecyl phosphonium chloride]
Log10 Reduction Facultative Anaerobes** ([1]; contact time 4 hours): 4
Log10 Reduction Anaerobes* ([2]; contact time 4 hours): 5

[Na+].[O-][Cl+][O-] [11(comparative), NaClO2]
Log10 Reduction Facultative Anaerobes** ([1]; contact time 4 hours): 0
Log10 Reduction Anaerobes* ([2]; contact time 4 hours): 0

[Na+].[O-][Cl+][O-] [12(comparative), NaClO2]
Log10 Reduction Facultative Anaerobes** ([1]; contact time 4 hours): 0
Log10 Reduction Anaerobes* ([2]; contact time 4 hours): 1

CCCCCCCCCCCCCC[P+](CCCC)(CCCC)CCCC.[Cl-] [17(comparative), tri n-butyl n-tetradecyl phosphonium chloride]
Log10 Reduction Facultative Anaerobes** ([1]; contact time 24 hours): 5
Log10 Reduction Anaerobes* ([2]; contact time 24 hours): 5

CCCCCCCCCCCCCC[P+](CCCC)(CCCC)CCCC.[Cl-] [18(comparative), tri n-butyl n-tetradecyl phosphonium chloride]
Log10 Reduction Facultative Anaerobes** ([1]; contact time 24 hours): 6
Log10 Reduction Anaerobes* ([2]; contact time 24 hours): 5

[Na+].[O-][Cl+][O-] [19(comparative), NaClO2]
Log10 Reduction Facultative Anaerobes** ([1]; contact time 24 hours): 0
Log10 Reduction Anaerobes* ([2]; contact time 24 hours): 4

[Na+].[O-][Cl+][O-] [NaClO2]
effectiveness against anaerobes (in words) ([2]; longer contact times): limited effectiveness
effectiveness against anaerobes (in words) ([2]; short contact times): ineffective
